In paper PMC5218480 (PLoS ONE, 2017):

Test system: MV-4-11 cells
Assay: Gene expression microarray analysis (Affymetrix PrimeView) and GSEA
Format: cell-based, human
Parameters: RFU PODN (11730768_x_at) / Fold change /veh PODN (11730768_x_at) / RFU LINC00158 (11744669_a_at) / Fold change /veh LINC00158 (11744669_a_at) / RFU DUSP10 (11751237_a_at) / Fold change /veh DUSP10 (11751237_a_at) / RFU ID3 (11757404_x_at) / Fold change /veh ID3 (11757404_x_at) / RFU PLEKHG5 (11737974_s_at) / Fold change /veh PLEKHG5 (11737974_s_at) / RFU LRRC4B (11730491_at) / Fold change /veh LRRC4B (11730491_at) / RFU GIMAP4 (11747438_a_at) / Fold change /veh GIMAP4 (11747438_a_at) / RFU KRT8 (11758183_x_at) / Fold change /veh KRT8 (11758183_x_at) / RFU CNN1 (11734310_a_at) / Fold change /veh CNN1 (11734310_a_at) / RFU VPS37D (11726825_at) / Fold change /veh VPS37D (11726825_at) / RFU C10orf10 (11716522_x_at) / Fold change /veh C10orf10 (11716522_x_at) / RFU KIR2DL2 /// KIR2DL4 /// KIR2DL5A /// KIR2DL5B /// KIR2DS1 /// KIR2DS2 /// KIR2DS3 /// KIR2DS4 /// KIR3DL3 /// KIR3DL3 /// KIR3DS1 (11738374_at) / Fold change /veh KIR2DL2 /// KIR2DL4 /// KIR2DL5A /// KIR2DL5B /// KIR2DS1 /// KIR2DS2 /// KIR2DS3 /// KIR2DS4 /// KIR3DL3 /// KIR3DL3 /// KIR3DS1 (11738374_at) / RFU C1QL1 (11718748_at) / Fold change /veh C1QL1 (11718748_at) / RFU TMPRSS4 (11747572_a_at) / Fold change /veh TMPRSS4 (11747572_a_at) / RFU HAMP (11756126_x_at) / Fold change /veh HAMP (11756126_x_at) / RFU RNFT2 (11725882_a_at) / Fold change /veh RNFT2 (11725882_a_at) / RFU NR4A2 (11747474_a_at) / Fold change /veh NR4A2 (11747474_a_at) / RFU ABCC12 (11746883_a_at) / Fold change /veh ABCC12 (11746883_a_at) / RFU TMEM136 (11760407_x_at) / Fold change /veh TMEM136 (11760407_x_at) / RFU CLDN22 /// WWC2 (11732394_at) / Fold change /veh CLDN22 /// WWC2 (11732394_at) / RFU HLA-DPB1 (11760878_x_at) / Fold change /veh HLA-DPB1 (11760878_x_at) / RFU SPINT1 (11716480_a_at) / Fold change /veh SPINT1 (11716480_a_at) / RFU GAP43 (11754022_s_at) / Fold change /veh GAP43 (11754022_s_at) / RFU A4GNT (11735810_at) / Fold change /veh A4GNT (11735810_at) / RFU PRB3 (11715151_x_at) / Fold change /veh PRB3 (11715151_x_at) / RFU TUBB4B (11761932_at) / Fold change /veh TUBB4B (11761932_at) / RFU CAPN14 (11732068_a_at) / Fold change /veh CAPN14 (11732068_a_at) / RFU TMCC2 (11721928_a_at) / Fold change /veh TMCC2 (11721928_a_at) / RFU IRGQ (11745062_a_at) / Fold change /veh IRGQ (11745062_a_at) / RFU FAM174B (11720279_a_at) / Fold change /veh FAM174B (11720279_a_at) / RFU TMPRSS4 (11748680_a_at) / Fold change /veh TMPRSS4 (11748680_a_at) / RFU FAM212B (11763350_a_at) / Fold change /veh FAM212B (11763350_a_at) / RFU PLEKHG5 (11743358_a_at) / Fold change /veh PLEKHG5 (11743358_a_at) / RFU ZSCAN30 (11745921_a_at) / Fold change /veh ZSCAN30 (11745921_a_at) / RFU CMKLR1 (11741424_a_at) / Fold change /veh CMKLR1 (11741424_a_at) / RFU LOC101060620 /// MAPK8IP1 (11723275_at) / Fold change /veh LOC101060620 /// MAPK8IP1 (11723275_at) / RFU SPTSSB (11747773_x_at) / Fold change /veh SPTSSB (11747773_x_at) / RFU PRSS12 (11739890_at) / Fold change /veh PRSS12 (11739890_at) / RFU BIN1 (11741810_x_at) / Fold change /veh BIN1 (11741810_x_at) / RFU WNT11 (11732464_a_at) / Fold change /veh WNT11 (11732464_a_at) / RFU C10orf10 (11716521_a_at) / Fold change /veh C10orf10 (11716521_a_at) / RFU C5orf56 (11738089_at) / Fold change /veh C5orf56 (11738089_at) / RFU CYB561 (11721691_x_at) / Fold change /veh CYB561 (11721691_x_at) / RFU ANKRD19P (11752326_a_at) / Fold change /veh ANKRD19P (11752326_a_at) / RFU OR2T12 /// OR2T33 /// OR2T8 (11738714_s_at) / Fold change /veh OR2T12 /// OR2T33 /// OR2T8 (11738714_s_at) / RFU VCAN (11748164_a_at) / Fold change /veh VCAN (11748164_a_at) / RFU JSRP1 (11732532_at) / Fold change /veh JSRP1 (11732532_at) / RFU KRTAP10-11 (11738290_x_at) / Fold change /veh KRTAP10-11 (11738290_x_at) / RFU MYO3A (11730013_a_at) / Fold change /veh MYO3A (11730013_a_at) / RFU EBF3 (11725865_a_at) / Fold change /veh EBF3 (11725865_a_at) / RFU CAMK2N1 (11719241_x_at) / Fold change /veh CAMK2N1 (11719241_x_at) / RFU C5orf56 (11738088_a_at) / Fold change /veh C5orf56 (11738088_a_at) / RFU OLFML3 (11715873_a_at) / Fold change /veh OLFML3 (11715873_a_at) / RFU LOC100653217 /// NTM (11731650_a_at) / Fold change /veh LOC100653217 /// NTM (11731650_a_at) / RFU MAPK11 (11762145_a_at) / Fold change /veh MAPK11 (11762145_a_at) / RFU FIZ1 (11724087_x_at) / Fold change /veh FIZ1 (11724087_x_at) / RFU OASL (11726364_x_at) / Fold change /veh OASL (11726364_x_at) / RFU SOX15 (11748057_x_at) / Fold change /veh SOX15 (11748057_x_at) / RFU CD79A (11719716_a_at) / Fold change /veh CD79A (11719716_a_at) / RFU HIST1H1D (11736915_at) / Fold change /veh HIST1H1D (11736915_at) / RFU CASKIN2 (11723855_a_at) / Fold change /veh CASKIN2 (11723855_a_at) / RFU LOC730098 (11760151_x_at) / Fold change /veh LOC730098 (11760151_x_at) / RFU OR4N2 (11742367_at) / Fold change /veh OR4N2 (11742367_at) / RFU PRRT2 (11749266_a_at) / Fold change /veh PRRT2 (11749266_a_at) / RFU SNX32 (11753110_a_at) / Fold change /veh SNX32 (11753110_a_at) / RFU CDHR5 (11726645_a_at) / Fold change /veh CDHR5 (11726645_a_at) / RFU RCAN1 (11760418_a_at) / Fold change /veh RCAN1 (11760418_a_at) / RFU FAM167A (11723789_a_at) / Fold change /veh FAM167A (11723789_a_at) / RFU FAM26E (11764081_at) / Fold change /veh FAM26E (11764081_at) / RFU ISYNA1 (11749810_s_at) / Fold change /veh ISYNA1 (11749810_s_at) / RFU ACY1 (11761880_at) / Fold change /veh ACY1 (11761880_at) / RFU 11764098_at / Fold change /veh 11764098_at / RFU SAMD14 (11745864_x_at) / Fold change /veh SAMD14 (11745864_x_at) / RFU NPB (11741838_a_at) / Fold change /veh NPB (11741838_a_at) / RFU TMPRSS6 (11731388_a_at) / Fold change /veh TMPRSS6 (11731388_a_at) / RFU KRTAP10-2 (11738614_at) / Fold change /veh KRTAP10-2 (11738614_at) / RFU ARHGAP8 /// PRR5-ARHGAP8 (11727945_x_at) / Fold change /veh ARHGAP8 /// PRR5-ARHGAP8 (11727945_x_at) / RFU KRTAP5-7 /// NADSYN1 (11734609_at) / Fold change /veh KRTAP5-7 /// NADSYN1 (11734609_at) / RFU RASL12 (11751679_a_at) / Fold change /veh RASL12 (11751679_a_at) / RFU CDKN2B (11736163_a_at) / Fold change /veh CDKN2B (11736163_a_at) / RFU PRF1 (11729649_at) / Fold change /veh PRF1 (11729649_at) / RFU, ZNF638 /// ZNF638-IT1 / Fold change vs veh, ZNF638 /// ZNF638-IT1 / RFU, PANK3 / Fold change vs veh, PANK3 / RFU, SH3YL1 / Fold change vs veh, SH3YL1 / RFU, ZEB2 / Fold change vs veh, ZEB2 / RFU, NRIP1 / Fold change vs veh, NRIP1 / RFU, PTTG1IP / Fold change vs veh, PTTG1IP / RFU, CAPN2 / Fold change vs veh, CAPN2 / RFU, MED14 / Fold change vs veh, MED14 / RFU, SNORA58 / Fold change vs veh, SNORA58 / RFU, C1orf63 / Fold change vs veh, C1orf63 / RFU, LRRFIP1 / Fold change vs veh, LRRFIP1 / RFU, NDUFAF7 / Fold change vs veh, NDUFAF7 / RFU, SLC12A2 / Fold change vs veh, SLC12A2 / RFU, IBTK / Fold change vs veh, IBTK / RFU, ESF1 / Fold change vs veh, ESF1 / Fold change vs veh, TMEM50B / RFU, TAOK1 / Fold change vs veh, TAOK1 / RFU, ACBD3 / Fold change vs veh, ACBD3 / RFU, TMA16 / Fold change vs veh, TMA16 / RFU, RWDD3 / Fold change vs veh, RWDD3 / RFU, BCAT1 / Fold change vs veh, BCAT1 / RFU, EDEM3 / Fold change vs veh, EDEM3 / RFU, TMEM33 / Fold change vs veh, TMEM33 / RFU, WDR75 / Fold change vs veh, WDR75 / RFU, AHCTF1 / Fold change vs veh, AHCTF1 / RFU, TFRC / Fold change vs veh, TFRC / RFU, ZDHHC17 / Fold change vs veh, ZDHHC17 / RFU, NOM1 / Fold change vs veh, NOM1 / RFU, ARL8B / Fold change vs veh, ARL8B / RFU, ZBTB11 / Fold change vs veh, ZBTB11 / RFU, TAMM41 / Fold change vs veh, TAMM41 / RFU, KIAA1704 /// LOC100996395 / Fold change vs veh, KIAA1704 /// LOC100996395 / RFU, ING1 / Fold change vs veh, ING1 / RFU, TRMT61B / Fold change vs veh, TRMT61B / RFU, FUBP3 / Fold change vs veh, FUBP3 / RFU, TP53 / Fold change vs veh, TP53 / RFU, TNKS2 / Fold change vs veh, TNKS2 / RFU, ZFP14 / Fold change vs veh, ZFP14 / RFU, ACTR2 / Fold change vs veh, ACTR2 / RFU, PPP3R1 / Fold change vs veh, PPP3R1 / RFU, PIK3R1 / Fold change vs veh, PIK3R1 / RFU, HNRNPA1 / Fold change vs veh, HNRNPA1 / RFU, RNF170 / Fold change vs veh, RNF170 / RFU, ZNF28 / Fold change vs veh, ZNF28 / RFU, RNGTT / Fold change vs veh, RNGTT / RFU, OGT / Fold change vs veh, OGT / RFU, BRD1 / Fold change vs veh, BRD1 / RFU, MARS / Fold change vs veh, MARS / RFU, ZNF655 / Fold change vs veh, ZNF655 / RFU, FAHD1 / Fold change vs veh, FAHD1 / RFU, BDP1 / Fold change vs veh, BDP1 / RFU, LRRCC1 / Fold change vs veh, LRRCC1 / RFU, ARID1A / Fold change vs veh, ARID1A / RFU, ZNF146 / Fold change vs veh, ZNF146 / RFU, ZNF330 / Fold change vs veh, ZNF330 / RFU, GPN3 / Fold change vs veh, GPN3 / RFU, C9orf123 / Fold change vs veh, C9orf123 / RFU, N4BP2L2 / Fold change vs veh, N4BP2L2 / RFU, ARFIP1 / Fold change vs veh, ARFIP1 / RFU, FAM179B / Fold change vs veh, FAM179B / RFU, BCL10 / Fold change vs veh, BCL10 / RFU, UHRF1BP1L / Fold change vs veh, UHRF1BP1L / RFU, BET1 / Fold change vs veh, BET1 / RFU, CNOT2 / Fold change vs veh, CNOT2 / RFU, ZNF268 / Fold change vs veh, ZNF268 / Fold change vs veh, ZNF507 / RFU, DGCR2 / Fold change vs veh, DGCR2 / RFU, WDSUB1 / Fold change vs veh, WDSUB1 / Fold change vs veh, HSP90B1 /// MIR3652 / RFU, ADSS / Fold change vs veh, ADSS / RFU, GK / Fold change vs veh, GK / RFU, ZNF148 / Fold change vs veh, ZNF148 / RFU, TAF9 / Fold change vs veh, TAF9 / RFU, SLC1A5 / Fold change vs veh, SLC1A5 / RFU, SLMO2 / Fold change vs veh, SLMO2 / RFU, ABCC4 / Fold change vs veh, ABCC4 / RFU, LOC101060439 /// RAP1B / Fold change vs veh, LOC101060439 /// RAP1B / RFU, RFX7 / Fold change vs veh, RFX7 / RFU, GTPBP10 / Fold change vs veh, GTPBP10 / RFU, CNEP1R1 / Fold change vs veh, CNEP1R1 / RFU, BIVM-ERCC5 /// ERCC5 / Fold change vs veh, BIVM-ERCC5 /// ERCC5 / RFU, ILF3 / Fold change vs veh, ILF3 / RFU 11762660_at / Fold change /veh 11762660_at / RFU VCAN (11757783_s_at) / Fold change /veh VCAN (11757783_s_at) / RFU DDX43 (11728927_at) / Fold change /veh DDX43 (11728927_at) / RFU KRT8 (11758188_x_at) / Fold change /veh KRT8 (11758188_x_at) / RFU NKD1 (11759106_at) / Fold change /veh NKD1 (11759106_at) / RFU SRD5A1 (11742802_a_at) / Fold change /veh SRD5A1 (11742802_a_at) / RFU TPSAB1 /// TPSB2 (11721975_s_at) / Fold change /veh TPSAB1 /// TPSB2 (11721975_s_at) / RFU GSTM3 (11746129_a_at) / Fold change /veh GSTM3 (11746129_a_at) / RFU IL23R (11737362_x_at) / Fold change /veh IL23R (11737362_x_at) / RFU TMEM51 (11727254_a_at) / Fold change /veh TMEM51 (11727254_a_at) / RFU PIWIL2 (11732686_x_at) / Fold change /veh PIWIL2 (11732686_x_at) / RFU ORM1 (11744905_x_at) / Fold change /veh ORM1 (11744905_x_at) / RFU CCDC152 (11743942_at) / Fold change /veh CCDC152 (11743942_at) / RFU ECM1 (11717891_a_at) / Fold change /veh ECM1 (11717891_a_at) / RFU IL23R (11748794_a_at) / Fold change /veh IL23R (11748794_a_at) / RFU TNFAIP8L3 (11732012_x_at) / Fold change /veh TNFAIP8L3 (11732012_x_at) / RFU MBOAT4 (11741988_at) / Fold change /veh MBOAT4 (11741988_at) / RFU 11764193_at / Fold change /veh 11764193_at / RFU TMEM53 (11763286_at) / Fold change /veh TMEM53 (11763286_at) / RFU MAGEB2 (11727129_at) / Fold change /veh MAGEB2 (11727129_at) / RFU TMEM200A (11744735_a_at) / Fold change /veh TMEM200A (11744735_a_at) / RFU CCDC152 (11751479_a_at) / Fold change /veh CCDC152 (11751479_a_at) / RFU FAM211A (11726209_a_at) / Fold change /veh FAM211A (11726209_a_at) / RFU RGS16 (11746705_a_at) / Fold change /veh RGS16 (11746705_a_at) / RFU VCAN (11755009_s_at) / Fold change /veh VCAN (11755009_s_at) / RFU RHOB (11743442_s_at) / Fold change /veh RHOB (11743442_s_at) / RFU RGS16 (11720943_a_at) / Fold change /veh RGS16 (11720943_a_at) / RFU RGS16 (11720944_at) / Fold change /veh RGS16 (11720944_at) / RFU, VPS4B / Fold change vs veh, VPS4B / RFU, CREB1 / Fold change vs veh, CREB1 / RFU, DNAJC13 / Fold change vs veh, DNAJC13 / RFU, GNAQ / Fold change vs veh, GNAQ / RFU, CDK5R1 / Fold change vs veh, CDK5R1 / RFU, ZRANB3 / Fold change vs veh, ZRANB3 / RFU, CUL4A / Fold change vs veh, CUL4A / RFU, CCNY / Fold change vs veh, CCNY / RFU, UFL1 / Fold change vs veh, UFL1 / RFU, COG3 / Fold change vs veh, COG3 / RFU, DIAPH2 / Fold change vs veh, DIAPH2 / RFU, SKA2 / Fold change vs veh, SKA2 / RFU, AFF3 / Fold change vs veh, AFF3 / RFU, LMF1 / Fold change vs veh, LMF1 / RFU, IPO11 / Fold change vs veh, IPO11 / RFU, DFFB / Fold change vs veh, DFFB / RFU, FOXP1 / Fold change vs veh, FOXP1 / RFU, CARD8 / Fold change vs veh, CARD8 / RFU, STRN3 / Fold change vs veh, STRN3 / RFU, ADK / Fold change vs veh, ADK / RFU, RASSF2 / Fold change vs veh, RASSF2 / RFU, WIPF1 / Fold change vs veh, WIPF1 / RFU, LARP1B / Fold change vs veh, LARP1B / RFU, RASA1 / Fold change vs veh, RASA1 / RFU, RB1 / Fold change vs veh, RB1 / RFU, PPFIA1 / Fold change vs veh, PPFIA1 / RFU, MAT2A / Fold change vs veh, MAT2A / RFU, CCT5 / Fold change vs veh, CCT5 / RFU, WDR92 / Fold change vs veh, WDR92 / RFU, CUX1 / Fold change vs veh, CUX1 / RFU, TTC7A / Fold change vs veh, TTC7A / RFU, TMEM135 / Fold change vs veh, TMEM135 / RFU, DEPTOR / Fold change vs veh, DEPTOR / RFU, CPM / Fold change vs veh, CPM / RFU, DNAJB6 / Fold change vs veh, DNAJB6 / RFU, CACNA2D3 / Fold change vs veh, CACNA2D3 / RFU, DTX4 / Fold change vs veh, DTX4 / RFU, TFCP2 / Fold change vs veh, TFCP2 / RFU, GMCL1 /// GMCL1P1 / Fold change vs veh, GMCL1 /// GMCL1P1 / RFU, AEBP2 / Fold change vs veh, AEBP2 / RFU, SNHG1 /// SNORD22 /// SNORD25 /// SNORD26 /// SNORD27 /// SNORD28 /// SNORD29 /// SNORD31 / Fold change vs veh, SNHG1 /// SNORD22 /// SNORD25 /// SNORD26 /// SNORD27 /// SNORD28 /// SNORD29 /// SNORD31 / Fold change (Aza/veh), C12orf56 (ProbeSet 11735607_a_at) / Fold change (ACY-1035/veh), C12orf56 (ProbeSet 11735607_a_at) / Fold change (Aza/veh), FGFR1OP (ProbeSet 11751329_s_at) / Fold change (ACY-1035/veh), FGFR1OP (ProbeSet 11751329_s_at) / Fold change (Aza/veh), VPS36 (ProbeSet 11739960_a_at) / Fold change (ACY-1035/veh), VPS36 (ProbeSet 11739960_a_at) / RFU SYPL1 (11715823_x_at) / Fold change /veh SYPL1 (11715823_x_at) / RFU IGFBP7 (11715501_s_at) / Fold change /veh IGFBP7 (11715501_s_at) / RFU REEP3 (11722064_at) / Fold change /veh REEP3 (11722064_at) / RFU IGLL1 (11728026_x_at) / Fold change /veh IGLL1 (11728026_x_at): dose or concentration left out as unconfirmed
Settings: ProbeSet 11732433_s_at; LIST B

Compound: Nc1ncn([C@@H]2O[C@H](CO)[C@@H](O)[C@H]2O)c(=O)n1 [azacitidine]
- Fold change vs veh, GK: 0.93
